The compounds below were run against T1, ML1a human melatonin receptor (Homo sapiens, UniProt P48039) (assay: Melatonergic receptor binding (2-[125I]-iodomelatonin, membranes of NIH-3T3 cells expressing ML1a receptor)). Details: 37° C. for 1 hour, read-out: Melatonin Binding Affinity (IC50).
T1 construct: expressed in transfected cells
T1 sequence (P48039 whole entry): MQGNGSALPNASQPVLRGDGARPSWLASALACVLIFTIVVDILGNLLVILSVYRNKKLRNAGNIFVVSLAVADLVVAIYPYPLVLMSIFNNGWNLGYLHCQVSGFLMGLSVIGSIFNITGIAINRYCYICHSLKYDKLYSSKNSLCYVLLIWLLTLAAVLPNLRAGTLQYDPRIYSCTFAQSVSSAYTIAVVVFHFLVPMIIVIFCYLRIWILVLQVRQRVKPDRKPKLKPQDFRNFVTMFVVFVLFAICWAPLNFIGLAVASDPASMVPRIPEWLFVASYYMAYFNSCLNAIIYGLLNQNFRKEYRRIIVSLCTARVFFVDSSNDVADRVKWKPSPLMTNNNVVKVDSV
Protocol: Melatonergic Receptor Binding Activity
(a) TME=50 mM Tris buffer containing 12.5 mM MgCl2, and 2 mM EDTA, pH 7.4 at 37° C. with concentrated HCl.
(b) Wash buffer: 20 mM Tris base containing 2 mM MgCl2, pH 7.4 at room temperature.
(c) 10^-4 M melatonin (10^-5 M final concentration).
(d) 2-[^125 I]-iodomelatonin, 0.1 M final concentration
The melatonin ML1a receptor cDNA was subcloned into pcDNA3 and introduced into NIH-3T3 cells using Lipofectamine. Transformed NIH-3T3 cells resistant to geneticin (G-418) were isolated, and single colonies expressing high levels of 2[^125 I]-iodomelatonin binding were isolated. Cells are maintained in DMEM supplemented with 10% calf serum and G-418 (0.5 g/liter). Cells are grown to confluency in T-175 flasks, scraped using Hank's balanced salt solution, and frozen at -80° C. For preparing membrane homogenates, pellets are thawed on ice, and resuspended in TME buffer in the presence of 10 μg/ml aprotinin and leupeptin, and 100 μM phenylmethylsulfonylfluoride. The cells were then homogenized using a dounce homogenizer, and centrifuged. The resulting pellet was resuspended with dounce homogenizer in TME (supplemented with the above protease inhibitors) and frozen. On the day of assay, the small aliquot was thawed on ice and resuspended in ice cold TME (1:50-1:100 v/v) and held on ice until assayed.
3. Incubation: 37° C. for 1 hour. Reaction is terminated by filtration. Filters are washed 3 times.
^a = (IC50) values for ML1a human melatonin receptor binding
In the case of `CC(C)C(=O)NC[C@H]1C[C@H]1c1cccc2c1CCO2` (relative stereo) [Example 5, (cis)-N-[[2-(2,3-Dihydrobenzofuran-4-yl)cycloprop-1-yl]methyl]-2-methyl propanamide], the IC50 is reported as < 50 nM.
`O=C(NC[C@@H]1C[C@@H]1c1cccc2c1CCO2)C1CC1` (relative stereo) [Example 3, (cis)-N-[[2-(2,3-Dihydrobenzofuran-4-yl)cycloprop-1-yl]methyl]cyclopropane carboxamide] was tested, and the IC50 was < 50 nM.
For `CCCC(=O)NC[C@@H]1C[C@@H]1c1cccc2c1CCO2` (relative stereo) [Example 4, (cis)-N-[[2-(2,3-Dihydrobenzofuran-4-yl)cycloprop-1-yl]methyl]butyramide], the IC50 was < 50 nM.
`CCC(=O)NC[C@@H]1C[C@@H]1c1cccc2c1CCO2` (relative stereo) [Example 1, (cis)-N-[[2-(2,3-Dihydrobenzofuran-4-yl)cycloprop-1-yl]methyl]propanamide] was tested, and the IC50 was < 50 nM.
An IC50 of 50 to 200 nM was found for `CC(=O)NC[C@@H]1C[C@@H]1c1cccc2c1CCO2` (relative stereo) [Example 2, (cis)-N-[[2-(2,3-Dihydrobenzofuran-4-yl)cycloprop-1-yl]methyl]acetamide] in this work.
